US20030104099A1, “Mineral delivery systems and methods” (priority 2001, published 2003)
Where two headings read alike, the source gives them in different places.

Key:
[1] = for solids in 25 grams of the filtered solution after drying: 2 grams acid + 2 grams calcium carbonate in 50 grams distilled water, four hours, 25 grams dried; for water solubility at ambient: distilled water
Description: To a 250 ml beaker, 2 grams of adipic acid powder is dissolved in 50 grams of distilled water. Then, 2 grams of calcium carbonate powder (Vicron 25-11 FG from Specilaty Minerals, Inc.) are added. […] After four hours, the slurry is filtered through a filter paper.
To a 250 ml beaker, 2 grams of tartaric acid powder is dissolved in 50 grams of distilled water. Then, 2 grams of calcium carbonate powder are added. […] After four hours, the slurry is filtered through a filter paper.
To a 250 ml beaker, 2 grams of malic acid powder is dissolved in 50 grams of distilled water. Then, 2 grams of calcium carbonate powder are added. […] After four hours, the slurry is filtered through a filter paper.
To a 250 ml beaker, 2 grams of citric acid powder is dissolved in 50 grams of distilled water. Then, 2 grams of calcium carbonate powder are added. […] After four hours, the slurry is filtered through a filter paper.
To a 250 ml beaker, 2 grams of fumaric acid powder is dissolved in 50 grams of distilled water. Then, 2 grams of calcium carbonate powder are added. […] After four hours, the slurry is filtered through a filter paper.

[2] = 120 grams distilled water, 3 grams acid, 39° C., 50 rpm, 30 minutes mixing, dried at 110° C.

Row | SMILES | solids in 25 grams of the filtered solution after drying [1] [grams] | water solubility at ambient [1] [%] | soluble calcium salt contained in the fluid ([2]; 75 grams ALPHA GRANDE bubble gum base) [%] | soluble calcium salt contained in the fluid ([2]; 75 grams DREYCO gum base) [%] | solubility in methanol (solids from ALPHA GRANDE bubble gum base fluid) | solubility in methanol (solids from DREYCO gum base fluid)
1 | O=C([O-])/C=C/C(=O)[O-].[Ca+2] [Calcium fumarate] | 0.6 | 2.4 | 1.19 | 1.46 | not soluble | not soluble
2 | O=C([O-])CC(O)C(=O)[O-].[Ca+2] (stereo not drawn) [Calcium malate] | 0.5 | 2.0 | – | – | – | –
3 | O=C([O-])C(O)C(O)C(=O)[O-].[Ca+2] (stereo not drawn) [Calcium tartrate] | 0.15 | – | – | – | – | –
